In patent publication US9650674B2, “Nucleic acid probes and methods of using the same” (Board of Trustees University of Arkansas, priority 2012, dated 2017):
{Cy5.5} = Cy5.5 cyanine dye label

How the values were obtained:
NRK-52E cells = assay: Intracellular endonuclease activity in cultured cells, time-lapse microscopy; type: cell-based, rat; conditions: AB259.3/Lipofectamine LTX complexes
Protocol: To test whether AB259.3 probe may be delivered intracellularly and thus be used as an indicator of endonuclease activity in live cells, NRK-52E cells were transfected with of AB259.3/Lipofectamine LTX complexes and imaged by time-lapse epifluorescence microscopy every 10 min for 8 hours. A 2.5-3 times increased fluorescence reached plateau in 1 hour after transfection and the cells retained fluorescent dye for the duration of experiment (FIG. 4A). To induce activity of endonucleases, cells were treated with cisplatin or camptothecin and imaged by time-lapse microscopy for Cy5.5 fluorescence. […] Therefore, it was concluded that AB259.3 can be delivered and used for intracellular monitoring of endonuclease activity in live cells. To further determine whether AB259.3 probe can be used in other cell lines, several of them were tested (FIG. 4D). […] It was then determined whether the probe without the loop would be consumed by NRK-52E cells equally to the original loop probe. […] Finally, PCR was used to determine whether the DNA part (as opposed to the fluorophores) of the probes enters the cells in vivo and in vitro.
Rat proximal tubular epithelial NRK-52E cells were used to test the ability of AB259.3 probe to measure endonuclease activity. The cells were seeded in a 24-well plate at 50,000 cells per well in complete DMEM medium supplemented with 10% fetal bovine serum. Cells were transfected with the AB259.3 probe using Lipofectamin LTX and then subjected to spinning disk confocal fluorescent time-lapse microscopy in 628/40-692/40 spectrum every 10 min for 8 hours using Olympus IX-81 image system equipped with Hamamatsu ORCA-ER camera and LiveCell microenvironmental control chamber (Pathology Devices Inc., Westminster, Md.). In separate experiment, cells were treated with either 25 μM cisplatin or 50 μM camptothecin for 8 hours, followed by 1-hour transfection with AB259.3 probe and 8-hour time-lapse imaging session with 10-min intervals using the same microscopy system.

[1] = Alkaline denaturing of probes, kinetic fluorescence; type: physicochemical; conditions: alkaline buffer
Protocol: Lastly, the probes' integrity was tested by alkaline denaturing. The probes were treated with alkaline buffer and kinetic detection of the fluorescence was performed. […] AB259.1, AB259.3 and AB259.5 gained 40%, 81%, and 85% of fluorescence, respectively.
All cell-free experiments were performed using the Bio-Tek Synergy 5 fluorescent plate reader. Before experiments, optimal excitation and emission wavelengths were determined. For this, excitation and emission were scanned in the ranges of 600-680 nm and 690-705 nm, respectively. The optimal excitation/emission was determined to be 665/703 nm. All kinetic and endpoint measurements were done in a total volume of 100 μl at 37° C. Unless stated otherwise, DNA substrate was used in final concentration 0.5 μM reconstituted in endonuclease activity assay (EAA) buffer (2 mM CaCl2, 5 mM MgCl2, 10 mM Tris-HCl, pH 7.4) in a 96-well plate. After measurement of starting fluorescence, DNase I or tested material (diluted 1:20 urine or 1:100 serum) were added to the reconstituted probe, rapidly mixed and fluorescence was monitored for up to 60 min with 30-sec intervals. In some instances, EDTA (final concentration 200 μM) or NaOH (50 mM) was added to terminate the reaction. For the experiments that involved assessment of fluorescence after DNA denaturing, probes were tested in Cepheid real-time PCR system using Cy5 setting (Sunnyvale, Calif.).

WT and DNase I KO mice = assay: Cy5.5 fluorescence in organs isolated after intravenous probe injection (Xenogen-IVIS); type: in vivo, mouse; conditions: 50 nmol/kg intravenous, 1 or 3 hours after injection; FIG. 6
Protocol: In the next set of experiments, it was tested whether AB259.3 probe is suitable for in vivo measurement of DNase I and endonuclease activity in internal organs. For this, WT and DNase I KO mice were subjected to intravenous administration of AB259.3 probe (50 nmol/kg). The organs including brain, heart, lung, muscle, bone (femur), liver, pancreas, salivary gland, jejunum, spleen, kidney and testicles were collected in 1 or 3 hours after injection and measured for Cy5.5 fluorescence using a Xenogen-IVIS instrument. […] Kidneys, pancreas, salivary glands and lungs were among those that had the most prominent relative increase of Cy5.5 fluorescence in WT mice with markedly lower level of fluorescence in DNase I KO mice. Despite highest absolute fluorescence values in gut and liver, relative gain of fluorescence in these organs was quite modest due to the high background autofluorescence.
Kidney ischemia-reperfusion was performed as previously reported. […] The liposomes were prepared as described previously.

With “[Cy5.5]AACACTCCGATGAGTGTAGAATGT[Cy5.5] (DNA, 5' {Cy5.5}, 3' {Cy5.5}, backbone not given here) [AB259.3, hairpin DNA probe with Cy5.5 at both ends, protruding strand +5]” the “time to plateau of fluorescence after transfection” value (NRK-52E cells) was 1 h, the “increase of fluorescence in cells after transfection” value (NRK-52E cells; FIG. 4A) was 2.5-3 times and the “gain of fluorescence on alkaline denaturing” value [1] was 81%. The “organ fluorescence after injection (in words)” value (WT and DNase I KO mice) was “kidneys appeared to be the most visibly distinctive organ”.
